# Tests used:
# [1] = system: lipid peroxides production in rat brain homogenates; assay: Inhibitory action on lipid peroxides production in rat brain homogenates (thiobarbituric acid method); format: biochemical, rat (SD); conditions: n = 4-6
# Experimental: Inhibitory Action on Lipid Peroxides Production in Rat Brain Homogenates
# The male SD rat brain tissue was used as 5% homogenate in phosphate-buffered solution. After incubation of the homogenate for 1 hour at 37° C., the amount of lipid peroxides produced was determined by the thiobarbituric acid method according to the description of Ohkawa et al. (Analytical Biochemistry, 95: 551, 1979)
# Test compounds were used as a solution of dimethylsulfoxide. The inhibitory action on lipid peroxide production was expressed as a % inhibition as compared with the amount of production in the vehicle group. Results
# [2] = system: experimental cerebral infarction model of Mongolian gerbils; assay: Anti-edema action in an experimental cerebral infarction model of Mongolian gerbil; format: in vivo; conditions: oral, 1 hour before carotid ligation
# Experimental: Anti-Edema Action in an Experimental Cerebral Infarction Model of Mongolian Gerbil
# Male Monglian gerbils (8-10 weeks of age) were used. Under light ether anesthesia, the right common carotid artery was ligated for 1 hour to induce experimental cerebral infarction, and then reperfused on removing the ligature. One hour after reperfusion, the animal was guillotined, the brain was excised, and divided into the left and right brain hemispheres. The wet weight of each hemisphere was determined, and then the dry weight was determined after drying for 24 hours at 96° C. The water content (%) of each hemisphere was estimated according to the following equation. [formula] In addition, neurological deficit symptoms were observed during ligation-and-reperfusion periods.
# Test drugs were orally administered as a gum arabic suspension 1 hour before the common carotid artery ligation under an unanesthetized condition. Results
# [3] = system: ischemic convulsive seizure due to bilateral common carotid artery ligation in SHR rats; assay: Inhibitory action on induction of convulsive seizure in experimental cerebral infarction model of SHR rats; format: in vivo, spontaneously hypertensive rats; conditions: control 151 ± 5
# Experimental: Inhibitory Action on Induction of Convulsive Seizure in an Experimental Cerebral Infarction Model of Spontaneously Hypertensive Rats
# Cerebral ischemia was induced by simultaneous ligation of bilateral common carotid arteries in male spontaneously hypertensive (SHR) rats (about 22 weeks of age) under light pentobarbital anesthesia. Thereafter, over about 4 hours, the behaviour was observed under conscious state.
# Test drugs were orally administered as a gum arabic suspension 1 hour before the ligation of bilateral common carotid arteries under an unanesthetized condition.
# [4] = system: SRS-A generation in rats pleural exudate; assay: Effects on SRS-A generation in pleural exudate in rat reversed passive Arthus pleurisy; format: in vivo
# Experimental: Effects on Increased Vascular Permeability and Slow Reacting Substance of Anaphylaxis (SRS-A) Generation in Rat Reversed Passive Arthus Pleurisy
# The rat reversed passive Arthus pleurisy was induced by the method of Yamamoto et al. Agents Actions, 5, 374-377 (1975)]. Rats were given 1 ml of saline containing 5 mg of egg albumin intravenously followed 0.2 ml of rabbit anti-agg albumin antiserum injected into the pleural cavity. Just after that, 0.5 ml of saline contained 1% Evans blue was administered intravenously to the rats. 30 Minutes later, the animals were killed by bleeding, and the pleural cavity was rinsed with 2 ml of saline. The concentrations of the dye in the pleural exudate and the peripheral blood were measured to calculate the volume of serum infiltrated into the pleural cavity. The vascular permeability (dye concentration in pleural cavity/dye concentration in peripheral blood) was expressed as μl serum/30 min. On the other hand, the amount of SRS-A generated in the pleural cavity was determined by the following procedures. 30 Minutes after induction of the pleurisy, the aminals were killed by bleeding and the pleural cavity was rinsed with 2 ml of saline. 9 Milliliter of cold absolute ethanol were immediately added to the rinsed solution. The mixture was allowed to stand at 4° C. for 30 min. After the mixture was centrifuged at 3000 r.p.m. for 10 min, the supernatant was concentrated by evaporation. The resulting residue was dissolved in 0.5 ml of saline. The amount of SRS-A generated was bioassayed using guinea pig ileum.
# [5] = system: SRS-A generation in the rat peritoneal cavity; assay: Effects on immunologically stimulated generation of SRS-A in the rat peritoneal cavity; format: in vivo; conditions: 1 mg/kg intraperitoneal, 1 min before antigen
# Experimental: Slow Reacting Substance of Anaphylaxis (SRS-A) Generation in Rat Peritoneal Cavity
# Generation of SRS-A in rat peritoneal cavity was determined by the method of Orange et al. [J. Immunol., 105, 1087-1095 (1970)] Rat-anti-egg albumin antiserum wad diluted twice with saline, and 2 ml of it was intraperitoneally given to the rat. Two hours later, egg albumin 2 mg in 5 ml of Tyrode solution containing heparin ([…]) and gelatin (0.1%) was intraperitoneally administered. Fifteen minutes after the antigen challenge, the animals were killed by bleeding under ether anesthesia and the solution given into the peritoneal cavity was harvested. The solution was centrifuged at 900 g for 5 min. Two ml of the supernatent was mixed with 7 ml of cold absolute ethanol and the mixture stood for 30 min at 4° C. After centrifugation at 1,500 g for 10 min, the supernatant was evaporated. The residue was dissolved in 1 ml of saline. Amount of SRS-A was bioassayed using guinea pig ileum. Drug dissolved in a 1% dimethylsulfoxide was intraperitoneally given 1 min before the antigen challenge.
# [6] = system: PMA-stimulated release of O2^- in guinea pig peritoneal polymorphonuclear leukocytes; assay: PMA-stimulated release of O2- in guinea pig peritoneal polymorphonuclear leukocytes (chemiluminescence); format: cell-based
# Experimental: Luminol (3-aminophthaloylhydrazine), 10 nmole, and phorbol myristate acetate (PMA), 10 ng, were added to guinea pig peritoneal polymorphonuclear leukocytes (1.5×10^4 cells) suspended in Hanks' balanced salt solution-HEPES buffer (pH 7.4). A total volume of the reaction mixture was 0.1 ml. The chemiluminescence resulted from release of superoxide (O2^-) during 30 sec was measured continuously for 10 min at 37° C. using a chemiluminometer analyzer (Packard Pico-Lite). A peak value of the chemiluminescence was compared as an index of the release of O2^-, and the chemiluminecence inhibitable by superoxide dismutase (300 μg/ml) was measured as 100%. Compound No. 50 was added immediately before the addition of PMA.
# mice of ICR breed = format: in vivo; conditions: 1000 mg/kg oral, male ICR mice, 7 days
# Source text: Acute Toxicity Test in Mice (Acute Toxicity)
# 1000 Milligrams per kilogram of each set specimen was applied orally to groups of 5 five-weeks old male mice of ICR breed, and a number of dead animals observed for the 7-days period was counted.
SMILES,Inhibition of lipid peroxides production ([1]; 10^-5 M) [%],Inhibition of lipid peroxides production ([1]; 10^-6 M) [%],Inhibition of lipid peroxides production ([1]; 10^-7 M) [%],Incidence of appearance of neurological deficit symptoms ([2]; control 5/6),"Water content, normal side (left) ([2]; control 80.1 ± 0.3) [%]","Water content, infarct side (right) ([2]; control 81.3 ± 0.9) [%]",Time to appearance of convulsive seizure ([3]; 3 mg/kg oral) [min],Time to appearance of convulsive seizure ([3]; 10 mg/kg oral) [min],% Inhibition of SRS-A generation in pleural exudate ([4]; 0.1 mg/rat) [%],% Inhibition of SRS-A generation in pleural exudate ([4]; 1 mg/rat) [%],"SRS-A generation, Inhibition (%) [5] [%]",SRS-A generation ([5]; control 26.5 ± 3.9) [LTD4 ng/rat],suppression of the release of O2- (in words) ([6]; 0.001-0.1 mM),"inhibition at 1 µM ([6]; Cavia porcellus, Leukocyte, 0.001 mM) [%]","inhibition at 10 µM ([6]; Cavia porcellus, Leukocyte, 0.01 mM) [%]","inhibition at 100 µM ([6]; Cavia porcellus, Leukocyte, 0.1 mM) [%]",Acute toxicity (number of dead animals/number of animals used) (mice of ICR breed)
"CC1=C(C)C(=O)C(C(CCCCCC(=O)O)c2ccccc2)=C(C)C1=O (stereo not shown) [Compound No. 50, 7-(3,5,6-trimethyl-1,4-benzoquinon-2-yl)-7-phenylheptanoic acid]",100 ± 0,66.6 ± 12.4,16.7 ± 3.2,1/6,79.8 ± 1.0,80.3 ± 1.0,204 ± 7,220 ± 9,49,77,72,7.5 ± 2.0,suppressed the release of O2^- in a concentration-dependent manner,12,56,93,–
CC1=C(C)C(=O)C(C(CCCCCC(=O)O)c2ccc(C)cc2)=C(C)C1=O (stereo not shown) [Compound No. 93],–,–,–,–,–,–,–,–,-6,56,–,–,–,–,–,–,0/5

# Reference: patent US5180742A, “Quinone derivatives, their production and use” (Takeda Chemical Industries, Ltd., priority 1984, dated 1993)
